How the values were obtained:
Type in all cases: toxicity, cell-based
HEK-293T = assay: Incucyte cell viability with HEK293T; settings: human, 10 µM, compound concentration 10 uM
Fibroblast = assay: Incucyte cell viability with human fibroblast; settings: 10 µM, compound concentration 10 uM
U2OS = assay: Incucyte cell viability with U2OS; settings: human, 10 µM, compound concentration 10 uM
Note: unitless GR value; below 1 slowed growth and below 0 cell loss.

## CCOC(=O)Nc1ccc2c(c1)N(C(=O)CN(CC)CC)c1ccccc1CC2
HEK-293T; 0 h, replicate number 1
  Growth Rate: 0.65
HEK-293T; 6 h, replicate number 2
  Growth Rate: 0.81
HEK-293T; 12 h, replicate number 2
  Growth Rate: 0.9
HEK-293T; 18 h, replicate number 2
  Growth Rate: 0.97
HEK-293T; 24 h, replicate number 2
  Growth Rate: 0.92
Fibroblast; 0 h, replicate number 2
  Growth Rate: 0.9
Fibroblast; 6 h, replicate number 1
  Growth Rate: 0.29
Fibroblast; 6 h, replicate number 2
  Growth Rate: 0.43
Fibroblast; 12 h, replicate number 1
  Growth Rate: 0.64
Fibroblast; 12 h, replicate number 2
  Growth Rate: 0.75
Fibroblast; 18 h, replicate number 1
  Growth Rate: 0.61
Fibroblast; 18 h, replicate number 2
  Growth Rate: 0.53
Fibroblast; 24 h, replicate number 1
  Growth Rate: 0.76
Fibroblast; 24 h, replicate number 2
  Growth Rate: 0.69
U2OS; 0 h, replicate number 1
  Growth Rate: 0.1
U2OS; 6 h, replicate number 1
  Growth Rate: 0.94
U2OS; 12 h, replicate number 1
  Growth Rate: 0.75
U2OS; 24 h, replicate number 1
  Growth Rate: 0.89

## C[C@H](CCC(=O)[O-])[C@H]1CC[C@H]2[C@@H]3[C@@H](O)C[C@@H]4C[C@H](O)CC[C@]4(C)[C@H]3CC[C@]12C.[Na+]
HEK-293T; 0 h, replicate number 1
  Growth Rate: 0.59
HEK-293T; 24 h, replicate number 2
  Growth Rate: 1
Fibroblast; 0 h, replicate number 2
  Growth Rate: 0.84
Fibroblast; 6 h, replicate number 1
  Growth Rate: 0.88
Fibroblast; 6 h, replicate number 2
  Growth Rate: 0.93
Fibroblast; 12 h, replicate number 2
  Growth Rate: 0.91
Fibroblast; 18 h, replicate number 1
  Growth Rate: 0.83
Fibroblast; 18 h, replicate number 2
  Growth Rate: 0.77
Fibroblast; 24 h, replicate number 2
  Growth Rate: 0.88
U2OS; 0 h, replicate number 1
  Growth Rate: -0.51
U2OS; 0 h, replicate number 2
  Growth Rate: 0.8
U2OS; 6 h, replicate number 1
  Growth Rate: 0.4
U2OS; 12 h, replicate number 1
  Growth Rate: 0.47
U2OS; 12 h, replicate number 2
  Growth Rate: 1
U2OS; 18 h, replicate number 1
  Growth Rate: 0.72

## COc1cc(O)c(C(CC(=O)N2C[C@H](C)C[C@H](C)C2)c2ccc3c(c2)OCO3)c(OC)c1 (some centres not stated)
HEK-293T; 0 h, replicate number 1
  Growth Rate: 0.81
HEK-293T; 0 h, replicate number 2
  Growth Rate: -0.14
Fibroblast; 0 h, replicate number 2
  Growth Rate: 0.14
Fibroblast; 6 h, replicate number 1
  Growth Rate: -0.32
Fibroblast; 6 h, replicate number 2
  Growth Rate: 1
Fibroblast; 12 h, replicate number 1
  Growth Rate: 0.5
Fibroblast; 18 h, replicate number 1
  Growth Rate: 0.1
Fibroblast; 18 h, replicate number 2
  Growth Rate: 0.88
Fibroblast; 24 h, replicate number 1
  Growth Rate: 0.74
U2OS; 0 h, replicate number 1
  Growth Rate: 0.96
U2OS; 0 h, replicate number 2
  Growth Rate: 0.9

## CC(=O)Nc1nc(C)c(S(=O)(=O)Nc2ccc(C(O)(C(F)(F)F)C(F)(F)F)cc2)s1
HEK-293T; 0 h, replicate number 1
  Growth Rate: 0.65
HEK-293T; 6 h, replicate number 1
  Growth Rate: 0.85
HEK-293T; 12 h, replicate number 1
  Growth Rate: 0.86
HEK-293T; 12 h, replicate number 2
  Growth Rate: 0.89
HEK-293T; 18 h, replicate number 2
  Growth Rate: 0.85
HEK-293T; 24 h, replicate number 2
  Growth Rate: 0.78
Fibroblast; 0 h, replicate number 2
  Growth Rate: 0.65
Fibroblast; 6 h, replicate number 2
  Growth Rate: 0.51
Fibroblast; 12 h, replicate number 1
  Growth Rate: 0.45
Fibroblast; 12 h, replicate number 2
  Growth Rate: 0.84
Fibroblast; 18 h, replicate number 1
  Growth Rate: 1
Fibroblast; 18 h, replicate number 2
  Growth Rate: 0.9
U2OS; 0 h, replicate number 1
  Growth Rate: -0.47
U2OS; 6 h, replicate number 1
  Growth Rate: 0.76
U2OS; 12 h, replicate number 1
  Growth Rate: 0.61
U2OS; 18 h, replicate number 1
  Growth Rate: 0.74
U2OS; 24 h, replicate number 1
  Growth Rate: 0.79

## C[C@@H](CO)CCC[C@@H](C)[C@H]1CC[C@H]2[C@@H]3CC=C4C[C@@H](O)CC[C@]4(C)[C@H]3CC[C@]12C
HEK-293T; 0 h, replicate number 1
  Growth Rate: 0.34
HEK-293T; 12 h, replicate number 2
  Growth Rate: 0.79
HEK-293T; 24 h, replicate number 2
  Growth Rate: 1
Fibroblast; 0 h, replicate number 1
  Growth Rate: 0.73
Fibroblast; 6 h, replicate number 1
  Growth Rate: 0.92
Fibroblast; 6 h, replicate number 2
  Growth Rate: 0.36
Fibroblast; 12 h, replicate number 1
  Growth Rate: 0.57
Fibroblast; 12 h, replicate number 2
  Growth Rate: 0.22
Fibroblast; 18 h, replicate number 1
  Growth Rate: 0.33
Fibroblast; 18 h, replicate number 2
  Growth Rate: 0.27
Fibroblast; 24 h, replicate number 1
  Growth Rate: 0.6
Fibroblast; 24 h, replicate number 2
  Growth Rate: 0.25
U2OS; 6 h, replicate number 2
  Growth Rate: 0.82
U2OS; 12 h, replicate number 1
  Growth Rate: 0.84
U2OS; 18 h, replicate number 1
  Growth Rate: 0.88

## CCOC(=O)c1ccc(CN(Cc2ccc(-c3cccc(S(C)(=O)=O)c3)cc2)S(=O)(=O)c2c(C)cc(C)cc2C)o1
HEK-293T; 0 h, replicate number 1
  Growth Rate: -0.26
HEK-293T; 12 h, replicate number 2
  Growth Rate: 0.98
Fibroblast; 0 h, replicate number 1
  Growth Rate: 0.32
Fibroblast; 6 h, replicate number 2
  Growth Rate: 0.38
Fibroblast; 12 h, replicate number 1
  Growth Rate: 0.59
Fibroblast; 12 h, replicate number 2
  Growth Rate: 0.87
Fibroblast; 18 h, replicate number 1
  Growth Rate: 0.86
Fibroblast; 18 h, replicate number 2
  Growth Rate: 0.84
Fibroblast; 24 h, replicate number 1
  Growth Rate: 0.99
Fibroblast; 24 h, replicate number 2
  Growth Rate: 0.87
U2OS; 24 h, replicate number 2
  Growth Rate: 0.89

## O=C(Cc1ccccc1[N+](=O)[O-])Nc1ccc(-c2ccc(C(O)(C(F)(F)F)C(F)(F)F)cc2F)cc1
HEK-293T; 0 h, replicate number 1
  Growth Rate: 0.09
HEK-293T; 0 h, replicate number 2
  Growth Rate: -0.97
HEK-293T; 6 h, replicate number 1
  Growth Rate: 0.35
HEK-293T; 6 h, replicate number 2
  Growth Rate: 0.13
HEK-293T; 12 h, replicate number 1
  Growth Rate: 0.73
HEK-293T; 12 h, replicate number 2
  Growth Rate: 0.64
HEK-293T; 18 h, replicate number 1
  Growth Rate: 0.7
HEK-293T; 18 h, replicate number 2
  Growth Rate: 0.6
HEK-293T; 24 h, replicate number 1
  Growth Rate: 0.78
HEK-293T; 24 h, replicate number 2
  Growth Rate: 0.74
Fibroblast; 6 h, replicate number 1
  Growth Rate: -0.02
Fibroblast; 6 h, replicate number 2
  Growth Rate: -0.05
Fibroblast; 12 h, replicate number 1
  Growth Rate: 0.45
Fibroblast; 12 h, replicate number 2
  Growth Rate: 0.28
Fibroblast; 18 h, replicate number 1
  Growth Rate: 0.13
Fibroblast; 18 h, replicate number 2
  Growth Rate: -0.04
Fibroblast; 24 h, replicate number 1
  Growth Rate: -0.02
Fibroblast; 24 h, replicate number 2
  Growth Rate: -0.14
U2OS; 6 h, replicate number 2
  Growth Rate: 0.87
U2OS; 12 h, replicate number 2
  Growth Rate: 0.85
U2OS; 18 h, replicate number 2
  Growth Rate: 0.73
U2OS; 24 h, replicate number 2
  Growth Rate: 0.66

## CCc1ccc(-c2ncn(CC3(F)CCN(C)CC3)c2-c2ccnc3[nH]ccc23)nc1
HEK-293T; 0 h, replicate number 1
  Growth Rate: -0.12
HEK-293T; 0 h, replicate number 2
  Growth Rate: 0.98
HEK-293T; 6 h, replicate number 1
  Growth Rate: 0
HEK-293T; 6 h, replicate number 2
  Growth Rate: 0.08
HEK-293T; 12 h, replicate number 1
  Growth Rate: 0.43
HEK-293T; 12 h, replicate number 2
  Growth Rate: 0.35
HEK-293T; 18 h, replicate number 1
  Growth Rate: 0.76
HEK-293T; 18 h, replicate number 2
  Growth Rate: 0.72
HEK-293T; 24 h, replicate number 1
  Growth Rate: 0.9
HEK-293T; 24 h, replicate number 2
  Growth Rate: 0.69
Fibroblast; 0 h, replicate number 1
  Growth Rate: 0.78
Fibroblast; 0 h, replicate number 2
  Growth Rate: 0.42
Fibroblast; 6 h, replicate number 2
  Growth Rate: 0.83
Fibroblast; 18 h, replicate number 1
  Growth Rate: 0.78
Fibroblast; 18 h, replicate number 2
  Growth Rate: 0.97
Fibroblast; 24 h, replicate number 1
  Growth Rate: 0.93
U2OS; 0 h, replicate number 1
  Growth Rate: 0.47
U2OS; 6 h, replicate number 1
  Growth Rate: 0.66
U2OS; 12 h, replicate number 1
  Growth Rate: 0.71
U2OS; 12 h, replicate number 2
  Growth Rate: 0.69
U2OS; 18 h, replicate number 1
  Growth Rate: 0.85
U2OS; 18 h, replicate number 2
  Growth Rate: 0.83
U2OS; 24 h, replicate number 1
  Growth Rate: 0.87
U2OS; 24 h, replicate number 2
  Growth Rate: 0.75

## Cn1ccc(Cn2cnc(-c3ccc(F)cc3)c2-c2ccnc3[nH]ccc23)n1
HEK-293T; 0 h, replicate number 1
  Growth Rate: -0.47
HEK-293T; 0 h, replicate number 2
  Growth Rate: 0.06
HEK-293T; 12 h, replicate number 2
  Growth Rate: 0.86
HEK-293T; 18 h, replicate number 2
  Growth Rate: 0.98
HEK-293T; 24 h, replicate number 2
  Growth Rate: 0.89
Fibroblast; 0 h, replicate number 1
  Growth Rate: 0.19
Fibroblast; 0 h, replicate number 2
  Growth Rate: 0.53
U2OS; 0 h, replicate number 1
  Growth Rate: 0.48
U2OS; 6 h, replicate number 1
  Growth Rate: 0.89
U2OS; 6 h, replicate number 2
  Growth Rate: 0.97
U2OS; 12 h, replicate number 1
  Growth Rate: 0.89
U2OS; 12 h, replicate number 2
  Growth Rate: 0.94
U2OS; 18 h, replicate number 2
  Growth Rate: 0.95
U2OS; 24 h, replicate number 2
  Growth Rate: 0.89

## CCO[C@H](COc1ccc(C(F)(F)F)cc1)CSc1ccc(OCC(=O)[O-])c(C)c1.[Na+]
HEK-293T; 0 h, replicate number 1
  Growth Rate: -0.25
HEK-293T; 0 h, replicate number 2
  Growth Rate: -0.95
HEK-293T; 6 h, replicate number 2
  Growth Rate: 0.55
HEK-293T; 12 h, replicate number 2
  Growth Rate: 0.82
HEK-293T; 18 h, replicate number 2
  Growth Rate: 0.72
HEK-293T; 24 h, replicate number 2
  Growth Rate: 0.68
Fibroblast; 0 h, replicate number 2
  Growth Rate: 0.62
Fibroblast; 6 h, replicate number 1
  Growth Rate: 0.27
Fibroblast; 12 h, replicate number 1
  Growth Rate: 0.7
Fibroblast; 12 h, replicate number 2
  Growth Rate: 0.87
Fibroblast; 18 h, replicate number 1
  Growth Rate: 0.93
Fibroblast; 18 h, replicate number 2
  Growth Rate: 0.97
Fibroblast; 24 h, replicate number 1
  Growth Rate: 0.93
U2OS; 0 h, replicate number 2
  Growth Rate: 0.56
U2OS; 6 h, replicate number 2
  Growth Rate: 0.78
U2OS; 12 h, replicate number 1
  Growth Rate: 0.94
U2OS; 12 h, replicate number 2
  Growth Rate: 0.8
U2OS; 18 h, replicate number 1
  Growth Rate: 0.96
U2OS; 18 h, replicate number 2
  Growth Rate: 0.92
U2OS; 24 h, replicate number 2
  Growth Rate: 0.78

## O=C(NCCS(=O)(=O)c1ccc(C(F)(F)F)cn1)c1ccc(Cl)cc1
HEK-293T; 0 h, replicate number 1
  Growth Rate: -0.16
HEK-293T; 6 h, replicate number 2
  Growth Rate: 0.83
HEK-293T; 12 h, replicate number 2
  Growth Rate: 0.73
HEK-293T; 18 h, replicate number 2
  Growth Rate: 0.77
HEK-293T; 24 h, replicate number 2
  Growth Rate: 0.79
Fibroblast; 0 h, replicate number 2
  Growth Rate: -0.73
Fibroblast; 12 h, replicate number 1
  Growth Rate: 0.61
Fibroblast; 12 h, replicate number 2
  Growth Rate: 0.53
Fibroblast; 18 h, replicate number 1
  Growth Rate: 0.55
Fibroblast; 18 h, replicate number 2
  Growth Rate: 0.99
Fibroblast; 24 h, replicate number 1
  Growth Rate: 0.9
Fibroblast; 24 h, replicate number 2
  Growth Rate: 0.73
U2OS; 12 h, replicate number 1
  Growth Rate: 0.98
U2OS; 18 h, replicate number 1
  Growth Rate: 0.96
U2OS; 24 h, replicate number 1
  Growth Rate: 0.93

From ChEMBL document CHEMBL5303304, “EUbOPEN Chemogenomics Library - IncuCyte” (2023)
